Laboratory results: patent publication US20210154188A1, “ALK5 INHIBITORS, CONJUGATES, AND USES THEREOF” (SILVERBACK THERAPEUTICS, INC., priority 2018, published 2021)
One block for each molecule: values may come before it.

Key:
ALK5 = target: T1, ALK5 (Homo sapiens, UniProt P36897); test: ALK5 enzyme inhibition assay (33P-ATP filter-binding, Reaction Biology Corp); assay type: biochemical; conditions: casein substrate 1 mg/mL, 10 uM ATP
T1 construct: purchased Reaction Biology Corp (Malvern, PA)
T1 sequence (P36897 34-503): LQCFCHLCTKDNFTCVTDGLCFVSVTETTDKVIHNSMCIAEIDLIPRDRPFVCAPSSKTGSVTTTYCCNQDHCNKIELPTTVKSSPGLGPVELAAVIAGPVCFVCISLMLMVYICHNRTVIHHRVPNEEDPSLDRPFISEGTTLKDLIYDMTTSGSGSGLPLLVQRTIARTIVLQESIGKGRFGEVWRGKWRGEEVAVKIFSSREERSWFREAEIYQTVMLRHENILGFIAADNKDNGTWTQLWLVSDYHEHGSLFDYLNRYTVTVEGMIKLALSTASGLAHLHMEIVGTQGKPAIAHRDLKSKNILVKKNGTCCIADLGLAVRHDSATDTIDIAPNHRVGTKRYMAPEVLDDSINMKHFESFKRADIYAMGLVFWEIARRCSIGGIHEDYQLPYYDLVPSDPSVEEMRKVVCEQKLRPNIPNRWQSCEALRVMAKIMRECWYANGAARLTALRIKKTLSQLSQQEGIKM
Protocol: ALK5 enzyme inhibition assays were performed by Reaction Biology Corp (Malvern, PA). 1 mg/mL of peptide subtrate (casein) and 10 uM ATP were prepared in a mixture of fresh reaction buffer. The kinase was delivered into the substrate solution which was gently mixed. Compounds in 100% DMSO were added to the kinase reaction mixture by Acoustic technology (Echo550; nanoliter range) and the mixture was incubated for 20 min at room temperature. ^33P-ATP (Specific activity 10 uCi/uL) was added into the reaction mixture to initiate the reaction and the reaction mixture was incubated for 2 hours at room temperature. Radioactivity was detected by filter-binding method and kinase activity data were expressed as the percent remaining kinase activity in test samples compared to vehicle (dimethyl sulfoxide) reactions. IC50 values and curve fits were obtained using Prism (GraphPad Software).

[1] = tested on: TGFb/SMAD Signaling Pathway SBE reporter cell line; test: TGFb reporter assay (luciferase); assay type: cell-based; conditions: 5-6 h preincubation, then TGFb, 18 h, luminescence
Protocol: TGFb/SMAD Signaling Pathway SBE reporter cell line was obtained from BPS Bioscience. Cells were passed/expanded/stored in liquid nitrogen per supplier's instruction with the exception that growth media was changed to DMEM-C with Geneticin (DMEM supplemented with 10% fetal bovine serum, 1× NEAA, 1 mM Pyruvate, 2 mM glutamine, 50 μg/mL penicillin, 50 U/mL streptomycin and 400 ug/mL of Geneticin). The assay media was MEM supplemented with 0.5% fetal bovine serum, 1× NEAA, 1 mM Pyruvate, 50 μg/mL penicillin and 50 U/mL streptomycin.
Reporter cells were harvested from the tissue culture flasks by incubation in small quantity of Versene at room temperature for three to five minutes after the media in the flask was removed and cells rinsed with PBS. Cells were counted and diluted in the assay media at ˜0.8×10^6 cells/mL then 50 uL/well were added to 96-well assay plate. Test samples (at desired concentrations diluted in assay media) were added to assay plate containing the 50 uL/well of cells (or media only), 50 uL per well, and incubated for 5-6 hours at 37° C. in a 5% CO2 humidified incubator. After that time, 15 uL of TGFb diluted to 12.5 ng/mL in the assay media was added to the plate. Controls included TGFb titration (from 25 to 0 ng/mL) without inhibitors, and media only (without cells, inhibitor or TGFb). Plates were incubated at 37° C. in a 5% CO2 humidified incubator for 18 h. Luciferase substrate solution was subsequently added at 75 uL per well, incubated in dark with shaking at room temperature for 10 min, and luminescence was measured using a luminometer.

SMILES: Cc1cccc(-c2nc(CNc3cccc4c3CNC4)[nH]c2-c2ccc3ncnn3c2)n1 [Compound 1.31, N-((5-([1,2,4]triazolo[1,5-a]pyridin-6-yl)-4-(6-methylpyridin-2-yl)-1H-imidazol-2-yl)methyl)isoindolin-4-amine]
IC50 (ALK5): 100 to 1000 nM
IC50 [1]: 100 to 1000 nM

SMILES: Cc1cccc(-c2nc(CNC3Cc4ccccc4C3)[nH]c2-c2ccc3ncnn3c2)n1 [Compound 1.27, N-((5-([1,2,4]triazolo[1,5-a]pyridin-6-yl)-4-(6-methylpyridin-2-yl)-1H-imidazol-2-yl)methyl)-2,3-dihydro-1H-inden-2-amine]
IC50 (ALK5): 100 to 1000 nM
IC50 [1]: 10 to 100 nM

SMILES: Cc1cccc(-c2nc(CNC3CCCCC3)[nH]c2-c2ccc3ncnn3c2)n1 [Compound 1.12, 1-(5-([1,2,4]triazolo[1,5-a]pyridin-6-yl)-4-(6-methylpyridin-2-yl)-1H-imidazol-2-yl)-N-(cyclohexyl)methanamine]
IC50 (ALK5): 100 to 1000 nM
IC50 [1]: 10 to 100 nM

SMILES: Cc1cccc(-c2nc(CNC3CCCC3)[nH]c2-c2ccc3ncnn3c2)n1 [Compound 1.11, 1-(5-([1,2,4]triazolo[1,5-a]pyridin-6-yl)-4-(6-methylpyridin-2-yl)-1H-imidazol-2-yl)-N-(cyclopentyl)methanamine]
IC50 (ALK5): 100 to 1000 nM
IC50 [1]: 10 to 100 nM

SMILES: Cc1cccc(-c2nc(CNC3CCOCC3)[nH]c2-c2ccc3ncnn3c2)n1 [Compound 1.14, 1-(5-([1,2,4]triazolo[1,5-a]pyridin-6-yl)-4-(6-methylpyridin-2-yl)-1H-imidazol-2-yl)-N-(4-tetrahydropyranyl)methanamine]
IC50 (ALK5): 100 to 1000 nM
IC50 [1]: 10 to 100 nM

SMILES: CC(=O)NC1Cc2ccc(NCc3nc(-c4cccc(C)n4)c(-c4ccc5ncnn5c4)[nH]3)cc2C1 (centres unmarked) [Compound 1.25, N-(5-(((5-([1,2,4]triazolo[1,5-a]pyridin-6-yl)-4-(6-methylpyridin-2-yl)-1H-imidazol-2-yl)methyl)amino)-2,3-dihydro-1H-inden-2-yl)acetamide]
IC50 (ALK5): 100 to 1000 nM
IC50 [1]: 100 to 1000 nM

SMILES: Cc1cccc(-c2nc(CNC3CCCCCC3)[nH]c2-c2ccc3ncnn3c2)n1 [Compound 1.13, 1-(5-([1,2,4]triazolo[1,5-a]pyridin-6-yl)-4-(6-methylpyridin-2-yl)-1H-imidazol-2-yl)-N-(cycloheptyl)methanamine]
IC50 (ALK5): 100 to 1000 nM
IC50 [1]: 10 to 100 nM

SMILES: Cc1cccc(-c2nc(CNC3CCc4ccccc43)[nH]c2-c2ccc3ncnn3c2)n1 (racemic) [Compound 1.26, rac-N-((5-([1,2,4]triazolo[1,5-a]pyridin-6-yl)-4-(6-methylpyridin-2-yl)-1H-imidazol-2-yl)methyl)-2,3-dihydro-1H-inden-1-amine]
IC50 (ALK5): 100 to 1000 nM
IC50 [1]: 10 to 100 nM

SMILES: Cc1cccc(-c2nc(CNc3ccc4c(c3)CNCC4)[nH]c2-c2ccc3ncnn3c2)n1 [Compound 1.1, N-((5-([1,2,4]triazolo[1,5-a]pyridin-6-yl)-4-(6-methylpyridin-2-yl)-1H-imidazol-2-yl)methyl)-1,2,3,4-tetrahydroisoquinolin-7-amine]
IC50 (ALK5): 100 to 1000 nM
IC50 [1]: 100 to 1000 nM

SMILES: Cc1cccc(-c2nc(CNc3ccc4c(c3)CCNC4)[nH]c2-c2ccc3ncnn3c2)n1 [Compound 1.2, N-((5-([1,2,4]triazolo[1,5-a]pyridin-6-yl)-4-(6-methylpyridin-2-yl)-1H-imidazol-2-yl)methyl)-1,2,3,4-tetrahydroisoquinolin-6-amine]
IC50 (ALK5): 100 to 1000 nM
IC50 [1]: 100 to 1000 nM

SMILES: Cc1cccc(-c2nc(CN[C@@H]3CCc4ccccc43)[nH]c2-c2ccc3ncnn3c2)n1 [Compound 1.30, (R)-N-((5-([1,2,4]triazolo[1,5-a]pyridin-6-yl)-4-(6-methylpyridin-2-yl)-1H-imidazol-2-yl)methyl)-2,3-dihydro-1H-inden-1-amine]
IC50 (ALK5): 100 to 1000 nM
IC50 [1]: 10 to 100 nM

SMILES: Cc1cccc(-c2nc(CNc3cccc4c3CNCC4)[nH]c2-c2ccc3ncnn3c2)n1 [Compound 1.3, N-((5-([1,2,4]triazolo[1,5-a]pyridin-6-yl)-4-(6-methylpyridin-2-yl)-1H-imidazol-2-yl)methyl)-1,2,3,4-tetrahydroisoquinolin-8-amine]
IC50 (ALK5): 100 to 1000 nM
IC50 [1]: 100 to 1000 nM

Second part, the molecule after the results:

IC50 (ALK5): 100 to 1000 nM
IC50 [1]: 10 to 100 nM
SMILES: Cc1cccc(-c2nc(CNCCc3ccnc4ccccc34)[nH]c2-c2ccc3ncnn3c2)n1 [Compound 1.60, N-((5-([1,2,4]triazolo[1,5-a]pyridin-6-yl)-4-(6-methylpyridin-2-yl)-1H-imidazol-2-yl)methyl)-2-(quinolin-4-yl)ethan-1-amine]

IC50 (ALK5): 1000 to 10000 nM
IC50 [1]: 100 to 1000 nM
SMILES: Cc1cccc(-c2nc(CN3CCCCC3)[nH]c2-c2ccn3ncnc3c2)n1 [Compound 1.35, 7-(4-(6-methylpyridin-2-yl)-2-(piperidin-1-ylmethyl)-1H-imidazol-5-yl)-[1,2,4]triazolo[1,5-a]pyridine]

IC50 (ALK5): 10 to 100 nM
IC50 [1]: 100 to 1000 nM
SMILES: Cc1cccc(-c2nc(CN[C@H]3CCCC[C@@H]3F)[nH]c2-c2ccc3ncnn3c2)n1 [Compound 1.32, (1S,2S)-N-((5-([1,2,4]triazolo[1,5-a]pyridin-6-yl)-4-(6-methylpyridin-2-yl)-1H-imidazol-2-yl)methyl)-2-fluorocyclohexan-1-amine]

IC50 (ALK5): 100 to 1000 nM
IC50 [1]: 100 to 1000 nM
SMILES: Cc1cccc(-c2nc(CNCc3ccc4ccccc4c3)[nH]c2-c2ccc3ncnn3c2)n1 [Compound 1.58, 1-(5-([1,2,4]triazolo[1,5-a]pyridin-6-yl)-4-(6-methylpyridin-2-yl)-1H-imidazol-2-yl)-N-(naphthalen-2-ylmethyl)methanamine]

IC50 (ALK5): 100 to 1000 nM
IC50 [1]: 10 to 100 nM
SMILES: Cc1cccc(-c2nc(CNCCc3cccc4ncccc34)[nH]c2-c2ccc3ncnn3c2)n1 [Compound 1.61, N-((5-([1,2,4]triazolo[1,5-a]pyridin-6-yl)-4-(6-methylpyridin-2-yl)-1H-imidazol-2-yl)methyl)-2-(quinolin-5-yl)ethan-1-amine]

IC50 (ALK5): 100 to 1000 nM
IC50 [1]: 10 to 100 nM
SMILES: Cc1cccc(-c2nc(CN[C@H]3c4ccccc4C[C@@H]3O)[nH]c2-c2ccc3ncnn3c2)n1 [Compound 1.45, (1S,2S)-1-(((5-([1,2,4]triazolo[1,5-a]pyridin-6-yl)-4-(6-methylpyridin-2-yl)-1H-imidazol-2-yl)methyl)amino)-2,3-dihydro-1H-inden-2-ol]

IC50 (ALK5): 100 to 1000 nM
IC50 [1]: 10 to 100 nM
SMILES: Cc1cccc(-c2nc(CN[C@@H]3c4ccccc4C[C@@H]3O)[nH]c2-c2ccc3ncnn3c2)n1 [Compound 1.44, (1R,2S)-1-(((5-([1,2,4]triazolo[1,5-a]pyridin-6-yl)-4-(6-methylpyridin-2-yl)-1H-imidazol-2-yl)methyl)amino)-2,3-dihydro-1H-inden-2-ol]

IC50 (ALK5): 100 to 1000 nM
IC50 [1]: 10 to 100 nM
SMILES: Cc1cccc(-c2nc(CN[C@@H]3c4ccccc4C[C@H]3O)[nH]c2-c2ccc3ncnn3c2)n1 [Compound 1.46, (1R,2R)-1-(((5-([1,2,4]triazolo[1,5-a]pyridin-6-yl)-4-(6-methylpyridin-2-yl)-1H-imidazol-2-yl)methyl)amino)-2,3-dihydro-1H-inden-2-ol]

IC50 (ALK5): 100 to 1000 nM
IC50 [1]: 100 to 1000 nM
SMILES: Cc1cccc(-c2nc(CN3CCc4ccccc4C3)[nH]c2-c2ccn3ncnc3c2)n1 [Compound 1.40, 2-((5-([1,2,4]triazolo[1,5-a]pyridin-7-yl)-4-(6-methylpyridin-2-yl)-1H-imidazol-2-yl)methyl)-1,2,3,4-tetrahydroisoquinoline]

IC50 (ALK5): 10 to 100 nM
IC50 [1]: 10 to 100 nM
SMILES: Cc1cccc(-c2nc(CNCCc3cccc4ccccc34)[nH]c2-c2ccc3ncnn3c2)n1 [Compound 1.59, N-((5-([1,2,4]triazolo[1,5-a]pyridin-6-yl)-4-(6-methylpyridin-2-yl)-1H-imidazol-2-yl)methyl)-2-(naphthalen-1-yl)ethan-1-amine]
